Values quoted from earlier work in patent US20260248729A1, “NOVEL ORAL DOSAGE FORM” (Neon Healthcare Ltd, priority 2022, published 2026).

[1] = administered orally in the form of phenelzine sulfate

Time to peak plasma concentration [1]: 43 min
half-life [1]: 11.6 h
major metabolites phenylacetic acid and parahydroxyphenylacetic acid recovered, of the excreted dose of phenelzine in the urine (over the course of 96 hours after single doses): about 73%
Compound: NNCCc1ccccc1 [Phenelzine, 2-phenylethylhydrazine]
